# Earlier results as cited in patent US6383513B1, “Compositions comprising cannabinoids” (West Pharmaceutical Services Drug Delivery & Clinical …, priority 1997, dated 2002).
# Key:
# [1] = not given; remark: listed apart in the source
compound,measurement,setting,value
"CCCCCc1cc(O)c2c(c1)OC(C)(C)[C@@H]1CCC(C)=C[C@@H]21 [Dronabinol, delta-9-tetrahydrocannabinol]",appetite stimulant effect may continue,after administration,≥ 24 h
same,duration of action for psychoactive effects,after oral administration,4 to 6 h
same,onset of action,after oral administration,0.5 to 1 h
same,peak effect,after oral administration,2 to 4 h
same,absorbed,[1]; after single oral doses,90-95%
same,administered dose that reaches the systemic circulation,"[1]; oral, first pass hepatic metabolism and high lipid solubility",10-20%
